The test deals with T1, His-tagged Bcl-2 (Homo sapiens, UniProt P10415).
T1 construct: gene BCL2; commercial His-tagged Bcl-2 protein (Abcam); tag kept
Kind of test: competitive ELISA, His-tagged Bcl-2 vs immobilised biotinylated Bim peptide. The conditions noted are these: read-out: ELISA IC50 (μM) ^1. The format is binding. (In general: An ELISA detects its analyte on a solid surface through an enzyme-linked reagent.)

Setting [1] is: competition with Bim peptide (residues 81–106), 20 nM Bcl-2, PBS, room temperature.

This is an account of results in article PMC6479519, “New Quinoline-Based Heterocycles as Anticancer Agents Targeting Bcl-2” (Molecules, 2019).

Where two headings read alike, the source gives them in different places.

T1 sequence (P10415 whole entry): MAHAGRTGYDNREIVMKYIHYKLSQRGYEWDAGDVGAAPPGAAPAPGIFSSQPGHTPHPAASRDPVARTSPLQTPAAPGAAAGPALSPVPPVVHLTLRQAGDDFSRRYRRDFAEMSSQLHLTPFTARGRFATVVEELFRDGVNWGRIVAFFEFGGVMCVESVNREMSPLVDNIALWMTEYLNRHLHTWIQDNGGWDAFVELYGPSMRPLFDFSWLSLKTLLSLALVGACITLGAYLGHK

As a reminder, the IC50 is the point on the concentration scale where inhibition reaches its midpoint. Turning to `Cc1ccc(Nc2nnc(-c3cc(-c4ccc(Br)cc4)nc4ccccc34)o2)cc1` [6c], under setting [1], the IC50 turned out to be 1.93 ± 0.007 µM.

For `O=[N+]([O-])c1ccc(Nc2nnc(-c3cc(-c4ccc(Br)cc4)nc4ccccc34)o2)cc1` [6d], the IC50 was found to be 14.5 ± 1.2 µM.

With `COc1ccc2nc(-c3ccc(Br)cc3)cc(-c3nnc(Nc4ccc([N+](=O)[O-])cc4)o3)c2c1` [6i], the IC50 under setting [1] is 0.15 ± 0.02 µM.
